Measured values from patent US7300947B2, “N-dihydroxyalkyl-substituted 2-oxo-imidazole derivatives” (Banyu Pharmaceutical Co., Ltd., priority 2005, dated 2007).
Counter-ions that a name gives are not always drawn.

Test: Metabolic stability test using human liver microsome
Assay type: in vitro ADME
Details: human liver microsome 0.25 mg protein/mL, 1 μM test compound, 37° C., after 30 minutes' reaction
Description: Pharmacological Test Example 3 (Metabolic Stability Test) Metabolic stability of test compounds was examined using human liver microsome. A 100 mM potassium phosphate buffer (pH 7.4) comprising 10 mM [MUT], 1.0 mM NADP^+, 10 units/mL [MUT] DH, 3.0 mM MgCl2 and 0.25 mg protein/mL of human liver microsome was prepared, each 392 μL of which was poured into plural vessels and preincubated at 37° C. for 5 minutes. […] At the initiation time and 30 minutes thereafter of the reaction, 150 μL of each reaction solution was added to 450 μL of ethanol to suspend the reaction, followed by centrifugal separation (12,000 g, 12 minutes, 4° C.). Resulting supernatant was analyzed with LC/MS/MS. Based on the peak area of the test compound in each sample at the initiating time of the reaction as 100%, the test compound's residual ratio in the sample after 30 minutes' reaction was calculated. Residual ratio(%)= [peak area(after 30 minutes' reaction)/ peak area(0 minute's reaction)]×100.

**Q.** With CC(O)(CO)Cn1c(=O)n(C2CCN(CC3CCCCC34CC4)CC2)c2ccccc21 (single isomer, unassigned) [Example 4, 1-[(2S or 2R)-2,3-dihydroxy-2-methylpropyl]-3-{1-[(4S)-spiro[2.5]oct-4-ylmethyl]piperidin-4-yl}-1,3-dihydro-2H-benzimidazol-2-one(2R,3R)-3-carboxy-2,3-dihydroxypropionic acid salt] as the compound, how does the “Residual Ratio” value read?
**A.** The value was 72%.
